Patent US7030236B2, “Antisense oligonucleotides tarageting folate receptor alpha, and the use thereof” (priority 2001, dated 2006)
Where a chain is given by its changes, count along the chain named.

Experiments:
Format in all cases: cell-based, human
αhFR mRNA = assay: Northern analysis of αhFR mRNA in KB cells; conditions: oligonucleotide treatment over night
Excerpt: Expression of αhFR is known to be elevated in cancer. In particular, increased αhFR expression is found in 90% of human epithelial ovarian malignancies and is associated with a poor disease prognosis. It is possible that over expression of αhFR confers a growth survival advantage in ovarian cancer cells, since folates are involved in numerous cellular processes, including DNA and RNA synthesis.
Northern Analysis. KB cells were maintained over night in growth media containing sense or antisense unmodified DNA oligonucleotides at the indicated concentrations. Total RNA was isolated (Promega, Madison, Wis.) and samples containing 20 μg of total cellular RNA were resolved on a 1% agarose/0.66M formaldehyde/0.023 3-(N-morpholino) propansulfonic acid gel. The RNA's were transferred to a nitrocellulose membrane (Schleicher and Schuell, Portran, Keene, N.H.) and then hybridized to a random ^32P-labeled αhFR cDNA probe as described previously.

KB cells [1] = assay: KB cell viability after oligonucleotide treatment, total protein content by Bradford assay; conditions: compared to S-6 control
Procedure: The effect of AS-6 on the viability of cultured KB cells was evaluated (FIG. 3). […] The decrease in cell viability upon AS-6 treatment correlates well with the decrease in newly synthesized αhFR expression, as determined in FIG. 2B.
Cell Viability Experiments. Stable transfectants of pRc/CMV αhFR-S or pRc/CMV ahFR-AS constructs were achieved by the calcium phosphate method using the Stratagene Eukaryotic Transfection kit (La Jolla, Calif.) and selected in 500 μg/ml G418. Phosphorothioated-modified αhFR sense (S-6) and antisense (AS-6) DNA oligonucleotides were transfected into 6×10^4 KB cells by incubating oligonucleotides in 1 ml of serum-free media for 6 hrs. Transfections were terminated by the addition of 1 ml of serum-containing low-folate media. Total protein content was assessed 36 hours later by Bradford assay (Biorad, Hercules, Calif.).

MDA-MB-231 = assay: XTT cell survival after Tf-liposome-mediated oligonucleotide transfection, MDA-MB-231; conditions: MDA-MB-231, end-modified phosphorothioated oligo, 6 hrs transfection, XTT at 48 hrs
Procedure: (§1) FIGS. 10A–10B: FIGS. 10A and 10B depict the effect of various concentrations of αhFR AS-6 oligonucleotide (A) and S-6 oligonucleotide (B) on survival of cultured human breast cancer cells. End-modified phosphorothioated oligonucleotides were transfected into 2×10^4 cells at the indicated concentrations for 6 hrs using a Tf-liposome-mediated delivery complex. Cell survival was assessed 48 hrs after transfection by XTT assay.
(§2) To determine the effect of αhFR antisense oligonucleotide, on the survival of cultured breast cancer cells, we transfected AS6 oligonucleotide and S6 oligonucleotide at various concentrations via the Tf-liposome-mediated gene delivery system.

T47D = assay: XTT cell survival after Tf-liposome-mediated oligonucleotide transfection, T47D
Procedure: as §1, §2

MDA-MB-435 cells = assay: Chemosensitization to doxorubicin, XTT assay; conditions: 500 nM oligo, doxorubicin 24 hrs after transfection, XTT after 72 hrs
Procedure: FIG. 11: FIG. 11 depicts chemosensitization of MDA-MB-435 breast cancer cells after combination treatment with αhFR AS6 oligonucleotide and doxorubicin. MDA-MB-435 cells were plated at 2×10^4 cells/well and transfected with 500 nM of αhFR AS6 or S6 end-modified phosphorothioated oligonucleotide. After 24 hrs, cells were incubated with media containing doxorubicin at the indicated concentrations. Cell survival was determined by XTT assay after 72 hrs.
To determine whether or not αhFR antisense oligonucleotide sensitizes breast cancer cells to chemotherapy, the following experiment was carried out. 500 nM of AS6 oligonucleotide or S6 oligonucleotide was transfected into MDA-MB-435 cells and treated with varying concentrations of doxorubicin, twenty-four hours after transfection. Cell survival was determined after 72 hrs by XTT assay and the degree of sensitization was calculating by determining the ratio of IC50 values of the combined treatment relative to that of the S6 oligonucleotide and untreated controls. In FIG. 11, chemosensitization of MDA-MD-435 cells by AS6 oligonucleotide was about 5 fold (IC50 S6/IC50 AS6=5) relative to the sense control and about 10 fold (IC50 UT/IC50 AS6=10) relative to the untreated control.

MDA-MB-435 = assay: XTT cell survival after Tf-liposome-mediated oligonucleotide transfection, MDA-MB-435; conditions: MDA-MB-435, end-modified phosphorothioated oligo, 6 hrs transfection, XTT at 48 hrs
Procedure: as §1, §2

KB cells [2] = assay: KB cell viability after cytofectin transfection of ribozymes, Cell Counting Kit-8 colorimetric assay
Procedure: The viability of KB cells transfected with wild type or control mutant and sense ribozymes was assessed by colormetric assay. […] (FIG. 6A). […] Approximately 75% of the initial transfected ribozyme amounts disappeared after 1 hour. The quick half-life of ribozyme integrity may explain the unexpected lowered effect of αhFR ribozymes versus antisense oligonucleotides on KB cell survival.
In vitro synthesized wild type, mutant or sense-oriented ribozymes were transfected into 6×10^4 KB cells with cytofectin (Glen Research, Rockville, Md.), according to manufacturers instruction. Transfections were terminated by replacing media with 1 ml of serum-containing low-folate media. Cell viability was quantitated after 36 hours by the Cell Counting Kit-8 (Dojindo, Gaithersburg, Md.). For ribozyme decay analysis, in vitro synthesized ribozymes were radiolabeled with [α-^32P]-rCTP and rGTP using the riboprobe kit (Promega, Madison, Wis.). Radiolabeld ribozymes were transfected by the cytofectin method as described above. Total RNA was extracted at the indicated time points using the RNeasy mini kit (Quiagen, Valencia, Calif.), fractionated on a 6% sequencing gel and visualized by autoradiography. Amounts of intact internalized ^32P-labeled ribozyme were determined using the NIH image software.

## AS-1: antisense 21-mer DNA TGTTGTCATCCGCTGAGCCAT, αhFR open reading frame 21–1, SEQ ID NO. 2 (antisense TGTTGTCATCCGCTGAGCCAT; unmodified DNA)
αhFR mRNA
  αhFR mRNA by Northern analysis: remained unaffected

## AS-2: antisense 21-mer DNA AGGAGGTCAGCTGAGCAGCCA, αhFR open reading frame 780–760, SEQ ID NO. 3 (antisense AGGAGGTCAGCTGAGCAGCCA; unmodified DNA)
αhFR mRNA
  αhFR mRNA by Northern analysis: remained unaffected

## AS-6: antisense 21-mer DNA GCTCTTGCAGGTGTAGGAGGT, αhFR ORF 462–442, SEQ ID NO. 4; unmodified or phosphorothioated (antisense GCTCTTGCAGGTGTAGGAGGT; DNA, backbone and methylation of C not given here; phosphorothioate modified, described as end-modified)
KB cells [1]; 10 μM phosphorothioate-modified oligo
  decrease in overall protein content: 20%
KB cells [1]; 50 μM phosphorothioate-modified oligo
  decrease in overall protein content: 60%
MDA-MB-231
  IC50: 600 nM
T47D; T47D, end-modified phosphorothioated oligo, 6 hrs transfection, XTT at 48 hrs
  IC50: 633 nM
MDA-MB-435 cells; relative to sense control
  chemosensitization to doxorubicin, IC50 S6/IC50 AS6: about 5 fold
MDA-MB-435 cells; relative to untreated control
  chemosensitization to doxorubicin, IC50 UT/IC50 AS6: about 10 fold
αhFR mRNA
  αhFR mRNA by Northern analysis: remained unaffected
MDA-MB-435
  IC50: 416 nM

## S6: sense control 21-mer ACCTCCTACACCTGCAAGAGC, 442–462 (sense ACCTCCTACACCTGCAAGAGC; DNA, backbone and methylation of C not given here; S-6 used both unmodified and phosphorothioate-modified, form not tied to measurement, further chemistry not fully specified) [reference compound]
T47D; stated for the breast cancer cell lines together (T47D, MDA-MB-231, MDA-MB-435), versus AS6
  effect on survival of model breast cancer cell lines: significantly less effect

B1: Rz 187/210 WT: wild type hammerhead ribozyme targeted to 5′ region of αhFR open reading frame; encoding DNA in Table II (nucleic acid)
DNA 1: CCCGTCGACAATGCCTGCTGTTTCGTCCTCACGGACTCATCAGCTACCAACACAAGCTTCCC
DNA 2: GGGCAGCTGTTACGGACGACAAAGCAGGAGTGCCTGAGTAGTCGATGGTTGTGTTCGAAGGG
modifications: target site or template, no part of the molecule; chemistry not given here; one strand is listed 3' to 5'
KB cells [2]; KB cells, compared to control mutant and sense ribozymes
  decrease in cell survival: approximately 60%

B2: Rz 187/210 MUT: mutant control ribozyme, G in the catalytic structure changed to A (nucleic acid)
DNA 1: B1 DNA 1 with C36T
DNA 2: B1 DNA 2 with G36A
modifications: target site or template, no part of the molecule; chemistry not given here; one strand is listed 3' to 5'
notes: mutant control ribozyme, G in the catalytic structure changed to A
KB cells [2]; KB cells transfected with ribozyme
  effect on cell survival: little, if any effect
